This is an account of results in ChEMBL document CHEMBL2150845, “BACE Inhibitors: Potential Treatment of Alzheimer's Disease, Dementia, and Related Neurodegenerative Disorders (A): 5,6-Dihydroimidazo[1,2-a]pyrazin-8-yl-amine Derivatives: Patent Highlight” (ACS Med Chem Lett, 2012).

Usually IC50 stands for the concentration that gives 50% inhibition. Low readings indicate inhibition by little substance, high ones a need for much substance.

Chain of Beta-secretase 1 (P56817 whole entry): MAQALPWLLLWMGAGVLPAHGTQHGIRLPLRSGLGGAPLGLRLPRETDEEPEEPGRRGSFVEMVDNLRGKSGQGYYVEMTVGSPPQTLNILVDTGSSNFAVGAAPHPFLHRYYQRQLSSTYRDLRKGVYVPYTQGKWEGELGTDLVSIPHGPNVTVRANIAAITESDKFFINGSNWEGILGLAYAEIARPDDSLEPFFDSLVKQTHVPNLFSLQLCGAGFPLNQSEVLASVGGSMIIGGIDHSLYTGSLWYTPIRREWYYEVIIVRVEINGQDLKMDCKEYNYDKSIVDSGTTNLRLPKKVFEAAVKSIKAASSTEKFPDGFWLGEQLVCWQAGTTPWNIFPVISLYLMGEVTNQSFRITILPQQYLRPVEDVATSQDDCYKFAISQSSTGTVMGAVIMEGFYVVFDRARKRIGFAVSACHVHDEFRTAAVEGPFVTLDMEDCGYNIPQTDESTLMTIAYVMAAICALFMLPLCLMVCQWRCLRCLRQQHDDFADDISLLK

The test concerns the target Beta-secretase 1 (Homo sapiens, UniProt P56817). The test can be described thus: Inhibition of BACE1 by FRET assay.
In the case of `C[C@@]1(c2cc(NC(=O)c3ccc(C#N)cn3)ccc2F)Cn2c(C#N)cnc2C(N)=N1`, the IC50 was 38.9 nM.

As for `C[C@@]1(c2cc(NC(=O)c3ccn(C(F)F)n3)ccc2F)Cn2c(C#N)cnc2C(N)=N1`, the IC50 was 44.7 nM. Then `C[C@@]1(c2cc(NC(=O)c3ccn(C(F)F)n3)ccc2F)Cn2cc(C(F)(F)F)nc2C(N)=N1`, with 46.8 nM; and `NC1=N[C@@](c2cc(NC(=O)c3ccc(F)cn3)ccc2F)(C(F)F)Cn2ccnc21`, with over 30200 nM.
